Assay results from patent US20090258949A1, “AMORPHOUS FORM OF CINACALCET” (priority 2006, published 2009).
Counter-ions that a name gives are not always drawn.

Experiment: Stress stability of amorphous Cinacalcet Hydrochloride, assay by HPLC
Type: physicochemical
Conditions: stressed in a closed vial at 60° C. for 24 hours
Procedure: A sample of amorphous Cinacalcet Hydrochloride from Example 1 was stressed in a closed vial at 60° C. for 24 hours. […] Vol 7 μm; temperature 40° C. sample preparation: approximately 10 mg of sample dissolved in 25 ml of eluent B gradient: [table] Area %/mg of starting material and stressed sample were compared

## C[C@@H](NCCCc1cccc(C(F)(F)F)c1)c1cccc2ccccc12 [N-[1-(R)-(−)-(1-naphthyl)ethyl]-3-[3-(trifluoromethyl)phenyl]-1-aminopropane hydrochloride]
  decrease in assay measured by HPLC (area %/mg of starting material and stressed sample compared): No decrease in assay
